“Also recorded” adds a separate entry of the source.
Tests used:
Format in all cases: physicochemical
[1] = Brookfield viscosity (25°C) of cleaning formulation 24 h after addition of terpene ether
Method: Im Rahmen der vorliegenden Erfindung wird die Brookfield-Viskosität einer wässrigen Zusammensetzung vorzugsweise mittels einem RTV Brookfield-Viskosimeter bei 25°C ermittelt, besonders bevorzugt mit einer Spindel # 3 oder # 4.
Die in Tabelle 1 angegebene Reinigungsformulierung wurde untersucht. Tabelle 1: Reinigungsformulierung (WAS 15 %)
Zu dieser Formulierung wurden NP 1 oder NP 27 gegeben. Die gemessenen Brookfield-Viskositätswerte nach 24 Stunden werden in Tabelle 2 und 3 zusammengefasst. Tabelle 2: Brookfield-Viskosität (25°C)
Zu dieser Formulierung wurden NP 1 oder NP 27 sowie danach Natriumchlorid gegeben. Die gemessenen Brookfield-Viskositätswerte nach 24 Stunden werden in den folgenden Tabellen zusammengefasst. Tabelle 13: Brookfield-Viskosität (25°C)

[2] = Appearance of cleaning formulation after 24 h
[3] = pH of cleaning formulation after addition of terpene ether
[4] = Foam height and foam stability of formulation; settings: Reinigungsformulierung enthaltend Dinatriumlaurylsuccinat (wässrig); for h1: Schaumhöhe 5 Minuten nach dem Mischen; for h1 / h0: Lösung mit 0,5 % WAS; for h0: Schaumhöhe eine Minute nach dem Mischen; for Stabilität: Schaumstabilität (h1/h0)*100
Method: Die Schaumhöhe der Formulierungen wurde nach folgender Methode ermittelt: In einem 400 ml Becher wurden 100 g einer wässrigen Lösung mit 0,5 % WAS hergestellt. Für eine Minute wurde die Lösung bei […] runden […] wurde die […] Minute […]0) und 5 […]. Die Schaumstabilität in % ergibt sich dann über (h1/h0)*100.

[5] = Visual evaluation of foam (foam appearance, bubble size); set-up: key to Blasengröße nach 1 min. / Blasengröße nach 5 min.: klein (1); mittel (2); mittel-groß (3); groß (4); sehr groß (5); key to Aussehen des Schaums nach 1 min. / Aussehen des Schaums nach 5 min.: verschwindend (1); locker (2); mittelkompakt (3); sehr kompakt (4); settings: Reinigungsformulierung enthaltend Dinatriumlaurylsuccinat (wässrig)
Method: Die Qualität des Schaums wurde visuell nach der folgenden Methode festgestellt: 100 g der Lösung mit 0,5 % WAS wurden in einen 250 ml Glaszylinder mit Schraubverschluss und einem Innendurchmesser von 35 mm überführt. Der Zylinder wurde 10 mal gedreht und die Blasengröße und die Schaumkompaktheit wurden nach einer Minute nach dem Mischen und nach 5 Minuten ermittelt. Dabei erfolgte die Beurteilung auf der Grundlage der folgenden beschreibenden Parameter:
Aussehen des Schaums: verschwindend (1), locker (2), mittelkompakt (3), sehr kompakt (4)
Blasengröße: klein (1), mittel (2), mittel-groß (3), groß (4), sehr groß (5) Tabelle 4: […]

[6] = Reinigungsformulierung enthaltend Coco Glucosid, +0,5 %
[7] = Reinigungsformulierung enthaltend Coco Glucosid, +1 %
[8] = Reinigungsformulierung enthaltend Coco Glucosid, +5 %
[9] = Reinigungsformulierung enthaltend Dinatriumlaurylsuccinat (wässrig), +0,5 %, nach 24 Stunden
[10] = Reinigungsformulierung enthaltend Dinatriumlaurylsuccinat (wässrig), +1 %, nach 24 Stunden
[11] = Reinigungsformulierung enthaltend Dinatriumlaurylsuccinat (wässrig), +5 %, nach 24 Stunden
[12] = Reinigungsformulierung enthaltend Natriumlaurylethersulfat, Dinatriumcocoamphodiacetat, 0,5 % NaCl, +0,5 %, nach 24 Stunden
[13] = Reinigungsformulierung enthaltend Natriumlaurylethersulfat, Dinatriumcocoamphodiacetat, 0,5 % NaCl, +0,25 %, nach 24 Stunden
[14] = Reinigungsformulierung enthaltend Natriumlaurylethersulfat, Dinatriumcocoamphodiacetat, 0,5 % NaCl, +1 %, nach 24 Stunden
[15] = Reinigungsformulierung enthaltend Natriumlaurylethersulfat, Dinatriumcocoamphodiacetat, 0,5 % NaCl, +2 %, nach 24 Stunden
[16] = Reinigungsformulierung enthaltend Natriumlaurylethersulfat, Dinatriumcocoamphodiacetat, 1 % NaCl, +0,5 %, nach 24 Stunden
[17] = Reinigungsformulierung enthaltend Natriumlaurylethersulfat, Dinatriumcocoamphodiacetat, 1 % NaCl, +0,25 %, nach 24 Stunden
[18] = Reinigungsformulierung enthaltend Natriumlaurylethersulfat, Dinatriumcocoamphodiacetat, 1 % NaCl, +1 %, nach 24 Stunden
[19] = Reinigungsformulierung enthaltend Natriumlaurylethersulfat, Dinatriumcocoamphodiacetat, 1 % NaCl, +2 %, nach 24 Stunden
[20] = Reinigungsformulierung enthaltend Natriumlaurylethersulfat, Dinatriumcocoamphodiacetat, +0,5 %, nach 24 Stunden
[21] = Reinigungsformulierung enthaltend Natriumlaurylethersulfat, Dinatriumcocoamphodiacetat, +0,25 %, nach 24 Stunden
[22] = Reinigungsformulierung enthaltend Natriumlaurylethersulfat, Dinatriumcocoamphodiacetat, +1 %, nach 24 Stunden
[23] = Reinigungsformulierung enthaltend Natriumlaurylethersulfat, Dinatriumcocoamphodiacetat, +2 %, nach 24 Stunden
[24] = Reinigungsformulierung enthaltend Dinatriumlaurylsuccinat (wässrig), +0,5 %
[25] = Reinigungsformulierung enthaltend Dinatriumlaurylsuccinat (wässrig), +1 %
[26] = Reinigungsformulierung enthaltend Dinatriumlaurylsuccinat (wässrig), +5 %

CC1(C)C2CCC1(C)C(OCC1COC(=O)O1)C2 (stereo not drawn) [NP 27]
BF-Viskosität (2,5 rpm) [1, 6]: 16400 mPas
BF-Viskosität (5 rpm) [1, 6]: 15800 mPas
BF-Viskosität (2,5 rpm) [1, 7]: 1000 mPas
BF-Viskosität (5 rpm) [1, 7]: 900 mPas
BF-Viskosität (2,5 rpm) [1, 8]: 80 mPas
BF-Viskosität (5 rpm) [1, 8]: 60 mPas
BF-Viskosität (2,5 rpm) [1, 9]: 6800 mPas
BF-Viskosität (5 rpm) [1, 9]: 6800 mPas
BF-Viskosität (2,5 rpm) [1, 10]: 30400 mPas
BF-Viskosität (5 rpm) [1, 10]: 27800 mPas
BF-Viskosität (2,5 rpm) [1, 11]: 60 mPas
BF-Viskosität (5 rpm) [1, 11]: 40 mPas
BF-Viskosität (2,5 rpm) [1, 12]: 35200 mPas
BF-Viskosität (5 rpm) [1, 12]: 31000 mPas
BF-Viskosität (2,5 rpm) [1, 13]: 19600 mPas
BF-Viskosität (5 rpm) [1, 13]: 19000 mPas
BF-Viskosität (2,5 rpm) [1, 14]: 40800 mPas
BF-Viskosität (5 rpm) [1, 14]: 36800 mPas
BF-Viskosität (2,5 rpm) [1, 15]: 7400 mPas
BF-Viskosität (5 rpm) [1, 15]: 7200 mPas
BF-Viskosität (2,5 rpm) [1, 16]: 46400 mPas
BF-Viskosität (5 rpm) [1, 16]: 40400 mPas
BF-Viskosität (2,5 rpm) [1, 17]: 33200 mPas
BF-Viskosität (5 rpm) [1, 17]: 29000 mPas
BF-Viskosität (2,5 rpm) [1, 18]: 43200 mPas
BF-Viskosität (5 rpm) [1, 18]: 38800 mPas
BF-Viskosität (2,5 rpm) [1, 19]: 4000 mPas
BF-Viskosität (5 rpm) [1, 19]: 3800 mPas
BF-Viskosität (2,5 rpm) [1, 20]: 15600 mPas
BF-Viskosität (5 rpm) [1, 20]: 15000 mPas
BF-Viskosität (2,5 rpm) [1, 21]: 9200 mPas
BF-Viskosität (5 rpm) [1, 21]: 8700 mPas
BF-Viskosität (2,5 rpm) [1, 22]: 27600 mPas
BF-Viskosität (5 rpm) [1, 22]: 25600 mPas
BF-Viskosität (2,5 rpm) [1, 23]: 12800 mPas
BF-Viskosität (5 rpm) [1, 23]: 12400 mPas
Aussehen nach 24 h [2, 6]: transparent Gel-flüssig
Aussehen nach 24 h [2, 7]: opaleszent Phasenseparation
Aussehen nach 24 h [2, 8]: weiß Phasenseparation
Aussehen nach 24 h [2, 24]: transparent; also recorded: flüssig
Aussehen nach 24 h [2, 25]: transparent and Gel
Aussehen nach 24 h [2, 26]: Weiß and Flüssig
Aussehen nach 24 h ([2]; Reinigungsformulierung enthaltend Natriumlaurylethersulfat, Dinatriumcocoamphodiacetat, 0,5 % NaCl, +0,5 %): transparent Gel
Aussehen nach 24 h ([2]; Reinigungsformulierung enthaltend Natriumlaurylethersulfat, Dinatriumcocoamphodiacetat, 0,5 % NaCl, +0,25 %): transparent Gel-flüssig
Aussehen nach 24 h ([2]; Reinigungsformulierung enthaltend Natriumlaurylethersulfat, Dinatriumcocoamphodiacetat, 0,5 % NaCl, +1 %): transparent Gel
Aussehen nach 24 h ([2]; Reinigungsformulierung enthaltend Natriumlaurylethersulfat, Dinatriumcocoamphodiacetat, 0,5 % NaCl, +2 %): opaleszent flüssig
Aussehen nach 24 h ([2]; Reinigungsformulierung enthaltend Natriumlaurylethersulfat, Dinatriumcocoamphodiacetat, 1 % NaCl, +0,5 %): transparent Gel
Aussehen nach 24 h ([2]; Reinigungsformulierung enthaltend Natriumlaurylethersulfat, Dinatriumcocoamphodiacetat, 1 % NaCl, +0,25 %): transparent Gel
Aussehen nach 24 h ([2]; Reinigungsformulierung enthaltend Natriumlaurylethersulfat, Dinatriumcocoamphodiacetat, 1 % NaCl, +1 %): transparent Gel
Aussehen nach 24 h ([2]; Reinigungsformulierung enthaltend Natriumlaurylethersulfat, Dinatriumcocoamphodiacetat, 1 % NaCl, +2 %): weiß flüssig
Aussehen nach 24 h ([2]; Reinigungsformulierung enthaltend Natriumlaurylethersulfat, Dinatriumcocoamphodiacetat, +0,5 %): transparent Gel-flüssig
Aussehen nach 24 h ([2]; Reinigungsformulierung enthaltend Natriumlaurylethersulfat, Dinatriumcocoamphodiacetat, +0,25 %): transparent flüssig
Aussehen nach 24 h ([2]; Reinigungsformulierung enthaltend Natriumlaurylethersulfat, Dinatriumcocoamphodiacetat, +1 %): transparent Gel
Aussehen nach 24 h ([2]; Reinigungsformulierung enthaltend Natriumlaurylethersulfat, Dinatriumcocoamphodiacetat, +2 %): opaleszent flüssig
pH [3, 6]: 6
pH [3, 7]: 6
pH [3, 8]: 6,1
pH [3, 24]: 6,3
pH [3, 25]: 6,35
pH [3, 26]: 6,4
h1 ([4]; 0,5 %): 210 mm
h0 ([4]; 0,5 %): 240 mm
Stabilität ([4]; 0,5 %): 88%
h1 ([4]; 1 %): 180 mm
h0 ([4]; 1 %): 215 mm
Stabilität ([4]; 1 %): 84%
h1 ([4]; 5 %): 175 mm
h0 ([4]; 5 %): 210 mm
Stabilität ([4]; 5 %): 83%
Aussehen des Schaums nach 1 min. ([5]; +0,5 %): 2
Aussehen des Schaums nach 5 min. ([5]; +0,5 %): 1
Blasengröße nach 1 min. ([5]; +0,5 %): 4
Blasengröße nach 5 min. ([5]; +0,5 %): 5
Aussehen des Schaums nach 1 min. ([5]; +1 %): 3
Aussehen des Schaums nach 5 min. ([5]; +1 %): 1
Blasengröße nach 1 min. ([5]; +1 %): 3
Blasengröße nach 5 min. ([5]; +1 %): 5
Aussehen des Schaums nach 1 min. ([5]; +5 %): 3
Aussehen des Schaums nach 5 min. ([5]; +5 %): 1
Blasengröße nach 1 min. ([5]; +5 %): 4
Blasengröße nach 5 min. ([5]; +5 %): 5
